In brackets after ≈: the same amount, converted by molar mass.
Columns and labels:
Experiment in all cases: ≥ marks a high value that may be exact or a test limit, other limits are often not marked, values filed in µg/mL are converted to µM
[1] = test system: Candida albicans ATCC 200955
[2] = test system: Enterococcus faecium ATCC 700221
[3] = test system: Escherichia coli ATCC 25922
[4] = test system: Pseudomonas aeruginosa ATCC 27853
[5] = test system: Staphylococcus aureus ATCC 33591
[6] = test system: Xanthomonas axonopodis pv. glycines ISBF 327
[7] = test system: Acinetobacter baumannii CCARM 12005
[8] = test system: Acinetobacter baumannii CCARM 12035
[9] = test system: Acinetobacter baumannii CCARM 12036
[10] = test system: Acinetobacter baumannii CCARM 12037
[11] = test system: Bacillus subtilis KCTC 1021
[12] = test system: Bacillus subtilis KCTC 1022
[13] = test system: Bacillus subtilis KCTC 3068
[14] = test system: Escherichia coli CCARM 1229
[15] = test system: Escherichia coli CCARM 1238
[16] = test system: Escherichia coli KCTC 1682
[17] = test system: Escherichia coli KCTC 2571
[18] = test system: Escherichia coli KCTC 2593
[19] = test system: Pseudomonas aeruginosa CCARM 2002
[20] = test system: Pseudomonas aeruginosa CCARM 2003
[21] = test system: Pseudomonas aeruginosa CCARM 2095
[22] = test system: Pseudomonas aeruginosa CCARM 2163
[23] = test system: Pseudomonas aeruginosa KCTC 1637
[24] = test system: Pseudomonas aeruginosa KCTC 2004
[25] = test system: Pseudomonas aeruginosa KCTC 2513
[26] = test system: Salmonella typhimurium CCARM 8003
[27] = test system: Salmonella typhimurium CCARM 8007
[28] = test system: Salmonella typhimurium CCARM 8009
[29] = test system: Salmonella typhimurium KCTC 1926
[30] = test system: Staphylococcus aureus CCARM 3089
[31] = test system: Staphylococcus aureus CCARM 3090
[32] = test system: Staphylococcus aureus CCARM 3108
[33] = test system: Staphylococcus aureus CCARM 3114
[34] = test system: Staphylococcus aureus CCARM 3126
[35] = test system: Staphylococcus aureus KCTC 1621
[36] = test system: Staphylococcus aureus KCTC 1916
[37] = test system: Staphylococcus aureus KCTC 3881
[38] = test system: Staphylococcus epidermidis KCTC 1917
[39] = test system: Salmonella enterica subsp. enterica serovar Typhi DMST 22842
[40] = test system: Staphylococcus aureus ATCC 25923
[41] = test system: Staphylococcus epidermidis ATCC 12228

SMILES	MIC [1] [µM]	MIC [2] [µM]	MIC [3] [µM]	MIC [4] [µM]	MIC [5] [µM]	MIC [7] [µM]	MIC [8] [µM]	MIC [9] [µM]	MIC [10] [µM]	MIC [11] [µM]	MIC [12] [µM]	MIC [13] [µM]	MIC [14] [µM]	MIC [15] [µM]	MIC [16] [µM]	MIC [17] [µM]	MIC [18] [µM]	MIC [19] [µM]	MIC [20] [µM]	MIC [21] [µM]	further results
CC[C@H](C)[C@H](NC(=O)[C@H](Cc1ccccc1)NC(=O)[C@H](CCCCN)NC(=O)[C@H](CC(C)C)NC(=O)[C@H](CC(C)C)NC(=O)CN)C(=O)N[C@@H](CCCCN)C(=O)N[C@@H](Cc1c[nH]c2ccccc12)C(=O)N[C@@H](CC(C)C)C(=O)N[C@@H](CC(C)C)C(N)=O [GLLKFIKWLL]	≥ 47.4	0.8 (≈ 0.984 µg/mL)	22.1 (≈ 27.2 µg/mL)	256 (≈ 315 µg/mL)	7.4 (≈ 9.1 µg/mL)	–	–	–	–	–	–	–	–	–	–	–	–	–	–	–	–
CC[C@H](C)[C@H](NC(=O)[C@H](CCCCN)NC(=O)[C@H](CCCCN)NC(=O)[C@H](CC(C)C)NC(=O)[C@H](CC(C)C)NC(=O)CN)C(=O)N[C@@H](CCCCN)C(=O)N[C@@H](Cc1c[nH]c2ccccc12)C(=O)N[C@@H](CC(C)C)C(=O)N[C@@H](CC(C)C)C(N)=O [GLLKKIKWLL]	≥ 47.4	22.1 (≈ 26.8 µg/mL)	12.5 (≈ 15.1 µg/mL)	28.4 (≈ 34.4 µg/mL)	28.4 (≈ 34.4 µg/mL)	–	–	–	–	–	–	–	–	–	–	–	–	–	–	–	–
CSCC[C@H](NC(=O)[C@H](Cc1ccccc1)NC(=O)CNC(=O)[C@H](Cc1ccccc1)NC(=O)[C@H](C)NC(=O)[C@H](CCCN=C(N)N)NC(=O)[C@H](CC(N)=O)NC(=O)[C@H](Cc1ccccc1)NC(=O)[C@H](CC(=O)O)NC(=O)[C@H](CCCCN)NC(=O)[C@H](Cc1ccccc1)NC(=O)[C@H](Cc1cnc[nH]1)NC(=O)[C@H](Cc1ccccc1)NC(=O)[C@H](CCC(N)=O)NC(=O)[C@H](CCCCN)NC(=O)[C@@H](N)Cc1ccccc1)C(=O)N[C@H](C(=O)N[C@@H](CCCN=C(N)N)C(=O)N[C@H](C(=O)N[C@@H](C)C(=O)N[C@@H](CC(C)C)C(=O)N[C@@H](CCC(N)=O)C(=O)N[C@@H](C)C(=O)N[C@@H](CCC(=O)O)C(=O)N[C@@H](CCCCN)C(=O)N[C@@H](CC(C)C)C(N)=O)C(C)C)[C@@H](C)O [FKQFHFKDFNRAFGFMTRVALQAEKL]	–	–	40 (≈ 127 µg/mL)	80 (≈ 254 µg/mL)	–	–	–	–	–	–	–	–	–	–	–	–	–	–	–	–	MIC [6]: ≥ 40 µM
CC[C@H](C)[C@H](NC(=O)CNC(=O)[C@H](CCCN=C(N)N)NC(=O)[C@H](Cc1ccccc1)NC(=O)[C@@H](NC(=O)[C@H](Cc1cnc[nH]1)NC(=O)[C@H](Cc1cnc[nH]1)NC(=O)[C@H](C)NC(=O)[C@@H](N)Cc1ccccc1)[C@@H](C)CC)C(=O)N[C@H](C(=O)N[C@@H](Cc1cnc[nH]1)C(=O)N[C@H](C(=O)NCC(=O)N[C@@H](CCCCN)C(=O)N[C@H](C(=O)N[C@H](C(=O)N[C@@H](Cc1cnc[nH]1)C(=O)N[C@@H](CCCN=C(N)N)C(=O)N[C@@H](CC(C)C)C(=O)N[C@H](C(=O)N[C@H](C(=O)NCC(=O)O)[C@@H](C)O)C(C)C)[C@@H](C)CC)[C@@H](C)O)C(C)C)C(C)C [FAHHIFRGIVHVGKTIHRLVTG]	–	–	–	–	–	4 (≈ 9.98 µg/mL)	4 (≈ 9.98 µg/mL)	4 (≈ 9.98 µg/mL)	4 (≈ 9.98 µg/mL)	8 (≈ 20 µg/mL)	1 (≈ 2.5 µg/mL)	4 (≈ 9.98 µg/mL)	16 (≈ 39.9 µg/mL)	16 (≈ 39.9 µg/mL)	2 (≈ 4.99 µg/mL)	2 (≈ 4.99 µg/mL)	2 (≈ 4.99 µg/mL)	4 (≈ 9.98 µg/mL)	4 (≈ 9.98 µg/mL)	4 (≈ 9.98 µg/mL)	MIC [22]: 4 µM (≈ 9.98 µg/mL); MIC [23]: 4 µM (≈ 9.98 µg/mL); MIC [24]: 8 µM (≈ 20 µg/mL); MIC [25]: 8 µM (≈ 20 µg/mL); MIC [26]: ≥ 32 µM; MIC [27]: 16 µM (≈ 39.9 µg/mL); MIC [28]: 16 µM (≈ 39.9 µg/mL); MIC [29]: 16 µM (≈ 39.9 µg/mL); MIC [30]: 16 µM (≈ 39.9 µg/mL); MIC [31]: 16 µM (≈ 39.9 µg/mL); MIC [32]: 16 µM (≈ 39.9 µg/mL); MIC [33]: 16 µM (≈ 39.9 µg/mL); MIC [34]: 16 µM (≈ 39.9 µg/mL); MIC [35]: 4 µM (≈ 9.98 µg/mL); MIC [36]: 1 µM (≈ 2.5 µg/mL); MIC [37]: 2 µM (≈ 4.99 µg/mL); MIC [38]: 2 µM (≈ 4.99 µg/mL)
CC[C@H](C)[C@H](NC(=O)CNC(=O)[C@H](CCCN=C(N)N)NC(=O)[C@H](Cc1ccccc1)NC(=O)[C@@H](NC(=O)[C@H](Cc1cnc[nH]1)NC(=O)[C@H](Cc1cnc[nH]1)NC(=O)[C@H](CCCCN)NC(=O)[C@@H](N)Cc1ccccc1)[C@@H](C)CC)C(=O)N[C@@H](CCCCN)C(=O)N[C@@H](Cc1cnc[nH]1)C(=O)N[C@H](C(=O)NCC(=O)N[C@@H](CCCCN)C(=O)N[C@H](C(=O)N[C@H](C(=O)N[C@@H](Cc1cnc[nH]1)C(=O)N[C@@H](CCCN=C(N)N)C(=O)N[C@@H](CC(C)C)C(=O)N[C@H](C(=O)N[C@H](C(=O)NCC(=O)O)[C@@H](C)O)C(C)C)[C@@H](C)CC)[C@@H](C)O)C(C)C [FKHHIFRGIKHVGKTIHRLVTG]	–	–	–	–	–	2 (≈ 5.16 µg/mL)	2 (≈ 5.16 µg/mL)	2 (≈ 5.16 µg/mL)	2 (≈ 5.16 µg/mL)	8 (≈ 20.7 µg/mL)	4 (≈ 10.3 µg/mL)	2 (≈ 5.16 µg/mL)	8 (≈ 20.7 µg/mL)	8 (≈ 20.7 µg/mL)	1 (≈ 2.58 µg/mL)	4 (≈ 10.3 µg/mL)	4 (≈ 10.3 µg/mL)	2 (≈ 5.16 µg/mL)	2 (≈ 5.16 µg/mL)	2 (≈ 5.16 µg/mL)	MIC [22]: 2 µM (≈ 5.16 µg/mL); MIC [23]: 1 µM (≈ 2.58 µg/mL); MIC [24]: 8 µM (≈ 20.7 µg/mL); MIC [25]: 8 µM (≈ 20.7 µg/mL); MIC [26]: 16 µM (≈ 41.3 µg/mL); MIC [27]: 8 µM (≈ 20.7 µg/mL); MIC [28]: 8 µM (≈ 20.7 µg/mL); MIC [29]: 2 µM (≈ 5.16 µg/mL); MIC [30]: 8 µM (≈ 20.7 µg/mL); MIC [31]: 8 µM (≈ 20.7 µg/mL); MIC [32]: 8 µM (≈ 20.7 µg/mL); MIC [33]: 8 µM (≈ 20.7 µg/mL); MIC [34]: 8 µM (≈ 20.7 µg/mL); MIC [35]: 2 µM (≈ 5.16 µg/mL); MIC [36]: 4 µM (≈ 10.3 µg/mL); MIC [37]: 4 µM (≈ 10.3 µg/mL); MIC [38]: 4 µM (≈ 10.3 µg/mL)
CC(C)[C@H](NC(=O)CNC(=O)[C@@H](N)CC(N)=O)C(=O)N[C@@H](CCC(N)=O)C(=O)N1CCC[C@H]1C(=O)N[C@@H](CCCCN)C(=O)N[C@@H](Cc1ccc(O)cc1)C(=O)N[C@@H](CCCN=C(N)N)C(=O)N[C@@H](Cc1c[nH]c2ccccc12)C(=O)N[C@@H](Cc1c[nH]c2ccccc12)C(=O)N[C@@H](CCCN=C(N)N)C(=O)N[C@@H](Cc1c[nH]c2ccccc12)C(=O)N[C@@H](Cc1c[nH]c2ccccc12)C(=O)N[C@@H](CCCN=C(N)N)C(=O)N[C@@H](CCCN=C(N)N)C(=O)N[C@@H](Cc1c[nH]c2ccccc12)C(=O)N[C@@H](Cc1c[nH]c2ccccc12)C(=O)N[C@@H](Cc1c[nH]c2ccccc12)C(=O)N[C@@H](Cc1c[nH]c2ccccc12)C(N)=O [NGVQPKYRWWRWWRRWWWW]	–	–	> 31.2	> 31.2	–	–	–	–	–	–	–	–	–	–	–	–	–	–	–	–	MIC [39]: 31.2 µM (≈ 91 µg/mL); MIC [40]: > 31.2 µM; MIC [41]: 31.2 µM (≈ 91 µg/mL)

Source: DBAASP
